How the values were obtained:
[1] = biological target: T1, HCV NS5B (Hepatitis C virus genotype 1b, UniProt Q9WMX2); experiment: Modified HCV NS5B RdRp enzyme assay (preincubation protocol); type: biochemical
T1 construct: The protein was expressed with an 18 amino acid C-terminal truncation to enhance the solubility; made in house; host or cells: E. coli BL21(DE3)
Method: The cDNA encoding the NS5B protein of HCV, genotype 1b, was cloned into the pET21a expression vector. The protein was expressed with an 18 amino acid C-terminal truncation to enhance the solubility. The E. coli competent cell line BL21(DE3) was used for expression of the protein. Cultures were grown at 37° C. for ˜4 hours until the cultures reached an optical density of 2.0 at 600 nm. The cultures were cooled to 20° C. and induced with 1 mM IPTG. Fresh ampicillin was added to a final concentration of 50 μg/ml and the cells were grown overnight at 20° C.
Cell pellets (3 L) were lysed for purification to yield 15-24 mgs of purified NS5B. The lysis buffer consisted of 20 mM Tris-HCl, pH 7.4, 500 mM NaCl, 0.5% triton X-100, 1 mM DTT, 1 mM EDTA, 20% glycerol, 0.5 mg/ml lysozyme, 10 mM MgCl2, 15 ug/ml deoxyribonuclease I, and Complete TM protease inhibitor tablets (Roche). After addition of the lysis buffer, frozen cell pellets were resuspended using a tissue homogenizer. To reduce the viscosity of the sample, aliquots of the lysate were sonicated on ice using a microtip attached to a Branson sonicator. The sonicated lysate was centrifuged at 100,000×g for 1 hr at 4° C. and filtered through a 0.2 μm filter unit (Corning).
The protein was purified using three sequential chromatography steps: Heparin sepharose CL-6B, polyU sepharose 4B, and […] SP sepharose (Pharmacia). The chromatography buffers were identical to the lysis buffer but contained no lysozyme, deoxyribonuclease I, MgCl2 or protease inhibitor and the NaCl concentration of the buffer was adjusted according to the requirements for charging the protein onto the column. Each column was eluted with a NaCl gradient which varied in length from 5-50 column volumes depending on the column type. After the final chromatography step, the resulting purity of the enzyme is >90% based on SDS-PAGE analysis. The enzyme was aliquoted and stored at −80° C.
HCV RdRp genotype 1b assays were run in a final volume of 60 μl in 96 well plates (Costar 3912). The assay buffer is composed of 20 mM Hepes, pH 7.5, 2.5 mM KCl, 2.5 mM MgCl2, 1 mM DTT, 1.6 U RNAse inhibitor (Promega N2515), 0.1 mg/ml BSA (Promega R3961), and 2% glycerol. All compounds were serially diluted (3-fold) in DMSO and diluted further in water such that the final concentration of DMSO in the assay was 2%. HCV RdRp genotype 1b enzyme was used at a final concentration of 28 nM. A polyA template was used at 6 nM, and a biotinylated oligo-dT12 primer was used at 180 nM final concentration. Template was obtained commercially (Amersham 27-4110). Biotinylated primer was prepared by Sigma Genosys. 3H-UTP was used at 0.6 μCi (0.29 μM total UTP). Reactions were initiated by the addition of enzyme, incubated at 30° C. for 60 min, and stopped by adding 25 μl of 50 mM EDTA containing SPA beads (4 μg/μl, Amersham RPNQ 0007). Plates were read on a Packard TOPCOUNT® NXT after >1 hr incubation at room temperature.
A modified enzyme assay was performed essentially as described for the standard enzyme assay except for the following: The biotinylated oligo dT12 primer was precaptured on streptavidin-coated SPA beads by mixing primer and beads in assay buffer and incubating at room temperature for one hour. Unbound primer was removed after centrifugation. The primer-bound beads were resuspended in 20 mM Hepes buffer, pH 7.5 and used in the assay at final concentrations of 20 nM primer and 0.67 μg/μl beads. Order of addition in the assay: enzyme (14 nM) was added to diluted compound followed by the addition of a mixture of template (0.2 nM), 3H-UTP (0.6 μCi, 0.29 μM), and primer-bound beads, to initiate the reaction; concentrations given are final. Reactions were allowed to proceed for 4 hours at 30° C.
IC50 values for compounds were determined using seven different [I]. IC50 values were calculated from the inhibition using the formula y=A+((B−A)/(1+((C/x)^D))).

[2] = tested on: HCV replicon; experiment: HCV replicon assay (FRET or luciferase reporter); type: cell-based; settings: Hepatitis C virus, one of the methods described
Description: To perform the HCV FRET screening assay, 96-well cell culture plates were used, The FRET peptide (Anaspec, Inc.) (Taliani et al., Anal. Biochem., 240:60-67 (1996)) contains a fluorescence donor, EDANS, near one end of the peptide and an acceptor, DABCYL, near the other end. The fluorescence of the peptide is quenched by […] resonance energy transfer (RET) between the donor and the acceptor, but as the NS3 protease cleaves the peptide the products are released from RET quenching and the fluorescence of the donor becomes apparent. The assay reagent was made as follows: 5× cell Luciferase cell culture lysis reagent from Promega (#E153A) diluted to 1× with dH2O, NaCl added to 150 mM final, the FRET peptide diluted to 20 μM final from a 2 mM stock.
To prepare plates, HCV replicon cells, with or without a Renilla luciferase reporter gene, were trypsinized and placed into each well of a 96-well plate with titrated test compounds added in columns 3 through 12; columns 1 and 2 contained a control compound (HCV protease inhibitor), and the bottom row contained cells without compound. The plates were then placed in a CO2 incubator at 37° C.
Subsequent to addition of the test compounds described above (FRET Assay Preparation), at various times the plate was removed and Alamar blue solution (Trek Diagnostics, #00-100) was added per well as a measure of cellular toxicity. After reading in a CYTOFLUOR® 4000 instrument (PE Biosystems), plates were rinsed with PBS and then used for FRET assay by the addition of 30 ul of the FRET peptide assay reagent described above (FRET Assay Preparation) per well. The plate was then placed into the CYTOFLUOR® 4000 instrument which had been set to 340 excite/490 emission, automatic mode for 20 cycles and the plate read in a kinetic mode. Typically, the signal to noise using an endpoint analysis after the reads was at least three-fold. Alternatively, after Alamar blue reading, plates were rinsed with PBS, 50 ul of DMEM (high glucose) without phenol red was added and plates were then used for luciferase assay using the Promega DUAL-GLO® Luciferase Assay System.
Compound analysis was determined by quantification of the relative HCV replicon inhibition and the relative cytotoxicity values. To calculate cytoxicity values, the average Alamar Blue fluorescence signals from the control wells were set as 100% non-toxic. The individual signals in each of the compound test wells were then divided by the average control signal and multiplied by 100% to determine […]. To calculate the HCV replicon inhibition values, an average background value was obtained from the two wells containing the highest amount of HCV protease inhibitor at the end of the assay period. These numbers were similar to those obtained from naïve Huh-7 cells.
The background numbers were then subtracted from the average signal obtained from the control wells and this number was used as 100% activity. The individual signals in each of the compound test wells were then divided by the averaged control values after background subtraction and multiplied by 100% to determine percent activity. EC50 values for a protease inhibitor titration were calculated as the concentration which caused a 50% reduction in FRET or luciferase activity. The two numbers generated for the compound plate, percent cytoxicity and percent activity were used to determine compounds of interest for further analysis.
The HCV replicon luciferase assay was developed to monitor the inhibitory effects of compounds described in the disclosure on HCV viral replication. Utilization of a replicon luciferase reporter assay was first described by Krieger et al (Krieger, N. et al., J. Virology, 75(10):4614-4624 (2001)). HUH-7 cells, constitutively expressing the HCV replicon, were grown in Dulbecco's Modified Eagle Media (DMEM) (Gibco-BRL) containing 10% Fetal calf serum (FCS) (Sigma) and 1 mg/ml G418 (Gibco-BRL). […]

T1 sequence (Q9WMX2 2420-2992): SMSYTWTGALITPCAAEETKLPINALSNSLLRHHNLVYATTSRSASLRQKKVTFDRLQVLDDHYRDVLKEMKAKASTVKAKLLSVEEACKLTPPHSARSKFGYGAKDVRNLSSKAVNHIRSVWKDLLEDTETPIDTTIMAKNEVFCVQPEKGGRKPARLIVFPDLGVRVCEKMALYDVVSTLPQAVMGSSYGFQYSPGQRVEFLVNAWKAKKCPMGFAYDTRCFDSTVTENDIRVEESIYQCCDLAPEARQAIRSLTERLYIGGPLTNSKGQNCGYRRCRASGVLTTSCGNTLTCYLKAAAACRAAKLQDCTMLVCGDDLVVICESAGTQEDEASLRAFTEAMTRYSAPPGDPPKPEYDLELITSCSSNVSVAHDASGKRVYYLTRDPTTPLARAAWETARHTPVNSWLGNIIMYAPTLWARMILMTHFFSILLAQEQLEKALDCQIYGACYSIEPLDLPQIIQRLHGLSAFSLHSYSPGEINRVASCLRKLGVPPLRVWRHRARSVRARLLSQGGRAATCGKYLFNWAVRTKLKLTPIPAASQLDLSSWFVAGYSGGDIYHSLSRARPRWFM

IC50 ([1]; class symbol)	Structure (SMILES)	IC50 ([1]; exact value)	EC50 ([2]; class symbol)	EC50 ([2]; exact value)
> 500 nM	CCOC(=O)c1cnn(C2CCC2)c1C1=Cc2cc(OC)ccc2-c2c(C3CCCCC3)c3ccc(C(=O)OC(C)(C)C)cc3n2C1	–	–	–
1.7 to 500 nM	COc1ccc2c(c1)C=C(c1c(C(=O)O)cnn1C1CCC1)Cn1c-2c(C2CCCCC2)c2ccc(C(=O)NS(=O)(=O)CC(C)C)cc21	–	–	–
1.7 to 500 nM	COc1ccc2c(c1)C=C(c1c(C(=O)O)cnn1C1CCC1)Cn1c-2c(C2CCCCC2)c2ccc(C(=O)NS(=O)(=O)C(C)C)cc21	–	–	–
1.7 to 500 nM	CCOC(=O)c1cnn(C2CCC2)c1C1=Cc2cc(OC)ccc2-c2c(C3CCCCC3)c3ccc(C(=O)NS(=O)(=O)CC(C)C)cc3n2C1	–	–	–
1.7 to 500 nM	CCOC(=O)c1cnn(C2CCC2)c1C1=Cc2cc(OC)ccc2-c2c(C3CCCCC3)c3ccc(C(=O)NS(=O)(=O)C(C)C)cc3n2C1	–	–	–
1.7 to 500 nM	CCOC(=O)c1cnn(C2CCOCC2)c1C1=Cc2cc(OC)ccc2-c2c(C3CCCCC3)c3ccc(C(=O)O)cc3n2C1	–	–	–
1.7 to 500 nM	CCOC(=O)c1cnn(C2CCOCC2)c1C1=Cc2cc(OC)ccc2-c2c(C3CCCCC3)c3ccc(C(=O)NS(=O)(=O)C(C)C)cc3n2C1	–	–	–
1.7 to 500 nM	COc1ccc2c(c1)C=C(c1c(C(=O)O)cnn1C1CCOCC1)Cn1c-2c(C2CCCCC2)c2ccc(C(=O)NS(=O)(=O)C(C)C)cc21	–	–	–
1.7 to 500 nM	CCOC(=O)c1cnn(C2CCOCC2)c1C1=Cc2cc(OC)ccc2-c2c(C3CCCCC3)c3ccc(C(=O)NS(=O)(=O)CC(C)C)cc3n2C1	–	–	–
1.7 to 500 nM	COc1ccc2c(c1)C=C(c1c(C(=O)O)cnn1C1CCOCC1)Cn1c-2c(C2CCCCC2)c2ccc(C(=O)NS(=O)(=O)CC(C)C)cc21	–	–	–
–	COc1ccc2c(c1)C=C(c1c(C(=O)O)noc1C1CC1)Cn1c-2c(C2CCCCC2)c2ccc(C(=O)NS(=O)(=O)N(C)C)cc21	–	1.7 to 500 nM	–
1.7 to 500 nM	COc1ccc2c(c1)C=C(c1c(C(=O)N3CCCN(C)CC3)cnn1C1CCC1)Cn1c-2c(C2CCCCC2)c2ccc(C(=O)NS(=O)(=O)C(C)C)cc21	–	–	–
1.7 to 500 nM	CCN1CC2CC1CN2C(=O)c1c(C2=Cc3cc(OC)ccc3-c3c(C4CCCCC4)c4ccc(C(=O)NS(=O)(=O)C(C)C)cc4n3C2)ncn1C1CC1 (centres unmarked)	–	–	–
–	COc1ccc2c(c1)C=C(c1ncn(C3CC3)c1C(=O)N1C[C@@H](C)O[C@@H](C)C1)Cn1c-2c(C2CCCCC2)c2ccc(C(=O)NS(=O)(=O)C(C)C)cc21	–	1.7 to 500 nM	–
–	COc1ccc2c(c1)C=C(c1c(C(=O)N3CC4CCC3CN4)cnn1C1CCC1)Cn1c-2c(C2CCCCC2)c2ccc(C(=O)NS(=O)(=O)C(C)C)cc21 (centres unmarked)	–	1.7 to 500 nM	–
–	COc1ccc2c(c1)C=C(c1c(C(=O)N3CCOCC4(CNC4)C3)cnn1C1CCC1)Cn1c-2c(C2CCCCC2)c2ccc(C(=O)NS(=O)(=O)C(C)C)cc21	–	1.7 to 500 nM	350 nM

Structure (SMILES)	IC50 ([1]; class symbol)	IC50 ([1]; exact value)	EC50 ([2]; class symbol)	EC50 ([2]; exact value)
COc1ccc2c(c1)C=C(c1c(C(=O)N3C[C@@H](C)O[C@@H](C)C3)cnn1C1CCOCC1)Cn1c-2c(C2CCCCC2)c2ccc(C(=O)NS(=O)(=O)C(C)C)cc21	1.7 to 500 nM	2.6 nM	1.7 to 500 nM	8.9 nM
COc1ccc2c(c1)C=C(c1c(C(=O)N3CCOCC3)cnn1C1CCOCC1)Cn1c-2c(C2CCCCC2)c2ccc(C(=O)NS(=O)(=O)C(C)C)cc21	1.7 to 500 nM	–	1.7 to 500 nM	–
COc1ccc2c(c1)C=C(c1c(C(=O)N3C4CCC3CN(C)C4)cnn1C1CCOCC1)Cn1c-2c(C2CCCCC2)c2ccc(C(=O)NS(=O)(=O)C(C)C)cc21	1.7 to 500 nM	–	1.7 to 500 nM	–
COc1ccc2c(c1)C=C(c1c(C(=O)N3C[C@@H](C)N(C)[C@@H](C)C3)cnn1C1CCOCC1)Cn1c-2c(C2CCCCC2)c2ccc(C(=O)NS(=O)(=O)C(C)C)cc21	1.7 to 500 nM	–	1.7 to 500 nM	–
CCN1C[C@@H]2C[C@H]1CN2C(=O)c1cnn(C2CCOCC2)c1C1=Cc2cc(OC)ccc2-c2c(C3CCCCC3)c3ccc(C(=O)NS(=O)(=O)C(C)C)cc3n2C1	1.7 to 500 nM	–	1.7 to 500 nM	–
COc1ccc2c(c1)C=C(c1c(C(=O)N3CC4CCC(C3)N4C)cnn1C1CCOCC1)Cn1c-2c(C2CCCCC2)c2ccc(C(=O)NS(=O)(=O)C(C)C)cc21	1.7 to 500 nM	–	1.7 to 500 nM	–
COc1ccc2c(c1)C=C(c1c(C(=O)N3C[C@@H](C)O[C@@H](C)C3)cnn1C1CCOCC1)Cn1c-2c(C2CCCCC2)c2ccc(C(=O)NS(=O)(=O)CC(C)C)cc21	1.7 to 500 nM	–	1.7 to 500 nM	–
COc1ccc2c(c1)C=C(c1c(C(=O)N3CCOCC3)cnn1C1CCOCC1)Cn1c-2c(C2CCCCC2)c2ccc(C(=O)NS(=O)(=O)CC(C)C)cc21	1.7 to 500 nM	4.2 nM	1.7 to 500 nM	8.4 nM
COc1ccc2c(c1)C=C(c1c(C(=O)N3C4CCC3CN(C)C4)cnn1C1CCOCC1)Cn1c-2c(C2CCCCC2)c2ccc(C(=O)NS(=O)(=O)CC(C)C)cc21	1.7 to 500 nM	–	1.7 to 500 nM	–
COc1ccc2c(c1)C=C(c1c(C(=O)N3C[C@@H](C)N(C)[C@@H](C)C3)cnn1C1CCOCC1)Cn1c-2c(C2CCCCC2)c2ccc(C(=O)NS(=O)(=O)CC(C)C)cc21	1.7 to 500 nM	–	1.7 to 500 nM	–

Reference: US8133884B2, “Compounds for the treatment of hepatitis C” (priority 2008, dated 2012)
